Source: PMC10216305, “Introduction of a Polyethylene Glycol Linker Improves Uptake of ^67Cu-NOTA-Conjugated Lactam-Cyclized Alpha-Melanocyte-Stimulating Hormone Peptide in Melanoma” (Cancers, 2023)
Values belong to the compound of their own block, whether it stands above or below them. Positions of bridges follow the written chain, without caps; N, C: chain ends. Non-standard residues stand in square brackets, D forms with d. Residues, ends and D or L forms follow the SMILES beside them. *: point of attachment. NOTA = O=C(O)CN1CCN(CC(=O)O)CCN(CC(=O)*)CC1; Nle = CCCC[C@H](N)C(=O)O

Assay: in vivo
Design: species or system mice
Details: C57, mouse, iv, total radioactivity
Protocol: All animal studies were conducted in compliance with Institutional Animal Care and Use Committee approval. C57 mice were purchased from Charles River Laboratory (Wilmington, NC). B16/F10 melanoma-bearing C57 mice were generated according to our previous publication. Each melanoma-bearing mouse was injected with 0.037 MBq of ^67Cu-NOTA-PEG2Nle-CycMSHhex or ^67Cu-NOTA-GGNle-CycMSHhex via the tail vein. The tumor uptake specificity of ^67Cu-NOTA-PEG2Nle-CycMSHhex and ^67Cu-NOTA-GGNle-CycMSHhex was determined by co-injecting 10 μg (6.07 nmol) of unlabeled NDP-MSH. Mice were sacrificed at 0.5, 2, 4, and 24 h post-injection, and tumors and organs of interest were harvested, weighed, and counted. The blood value was taken as 6.5% of the whole-body weight.

[1] = 0.037 MBq, Kidneys uptake (renal uptake)
[2] = 0.037 MBq, Normal organ uptake, except for kidney uptake
[3] = 0.037 MBq, Tumor/liver ratio as times the tumor/liver ratio of ^67Cu-NOTA-GGNle-CycMSHhex
[4] = 0.037 MBq, Uptake ratio Tumor/blood
[5] = 0.037 MBq, Uptake ratio Tumor/kidney
[6] = 0.037 MBq, Uptake ratio Tumor/liver
[7] = 0.037 MBq, Uptake ratio Tumor/lung
[8] = 0.037 MBq, Uptake ratio Tumor/muscle

tissue uptake dose at 0.5 h (0.037 MBq): 0.83 ± 0.09 %ID
tissue uptake dose at 2 h (0.037 MBq): 0.95 ± 0.16 %ID
tissue uptake dose at 24 h (0.037 MBq): 0.77 ± 0.12 %ID
tissue uptake at 0.5 h (0.037 MBq, Blood uptake): 0.63 ± 0.26 %ID/g
tissue uptake at 0.5 h (0.037 MBq, Bone uptake): 0.6 ± 0.35 %ID/g
tissue uptake at 0.5 h (0.037 MBq, Brain uptake): 0.04 ± 0.02 %ID/g
tissue uptake at 24 h (0.037 MBq, Brain uptake): 0.04 ± 0.03 %ID/g
tissue uptake at 0.5 h (0.037 MBq, Heart uptake): 0.58 ± 0.18 %ID/g
tissue uptake at 2 h (0.037 MBq, Heart uptake): 0.79 ± 0.06 %ID/g
tissue uptake at 4 h (0.037 MBq, Heart uptake): 0.34 ± 0.08 %ID/g
tissue uptake at 0.5 h [1]: 6.43 ± 1.31 %ID/g
tissue uptake at 2 h [1]: 6.34 ± 1.63 %ID/g
tissue uptake at 4 h [1]: 2.6 ± 0.79 %ID/g
tissue uptake at 0.5 h (0.037 MBq, Liver uptake): 0.95 ± 0.19 %ID/g
tissue uptake at 2 h (0.037 MBq, Liver uptake): 1.09 ± 0.14 %ID/g
tissue uptake at 4 h (0.037 MBq, Liver uptake): 1.41 ± 0.26 %ID/g
tissue uptake at 24 h (0.037 MBq, Liver uptake): 0.84 ± 0.15 %ID/g
tissue uptake at 0.5 h (0.037 MBq, Lung uptake): 0.76 ± 0.16 %ID/g
tissue uptake at 4 h (0.037 MBq, Lung uptake): 0.62 ± 0.18 %ID/g
tissue uptake at 0.5 h (0.037 MBq, Muscle uptake): 0.48 ± 0.12 %ID/g
tissue uptake at 2 h [2]: < 2 %ID/g
tissue uptake at 4 h [2]: < 2.6 %ID/g
tissue uptake at 0.5 h (0.037 MBq, Skin uptake): 1.77 ± 0.28 %ID/g
tissue uptake at 4 h (0.037 MBq, Skin uptake): 0.18 ± 0.07 %ID/g
tissue uptake at 0.5 h (0.037 MBq, Spleen uptake): 0.37 ± 0.1 %ID/g
tissue uptake at 0.5 h (0.037 MBq, Stomach uptake): 1.13 ± 0.36 %ID/g
tissue uptake at 0.5 h (0.037 MBq, Tumor uptake): 8.83 ± 2.19 %ID/g
tissue uptake at 4 h (0.037 MBq, Tumor uptake): 24.1 ± 1.83 %ID/g
tissue uptake at 24 h (0.037 MBq, Tumor uptake): 9.13 ± 1.66 %ID/g
tissue to tissue ratio at 2 h [3]: 3.3
tissue to tissue ratio at 4 h [3]: 2
tissue to tissue ratio at 24 h [3]: 1.8
tissue to tissue ratio at 4 h [4]: 482
tissue to tissue ratio at 24 h [4]: 456
tissue to tissue ratio at 0.5 h [5]: 1.37
tissue to tissue ratio at 2 h [5]: 4.41
tissue to tissue ratio at 4 h [5]: 9.27
tissue to tissue ratio at 24 h [5]: 10.1
tissue to tissue ratio at 0.5 h [6]: 9.29
tissue to tissue ratio at 2 h [6]: 25.7
tissue to tissue ratio at 4 h [6]: 17.1
tissue to tissue ratio at 0.5 h [7]: 11.6
tissue to tissue ratio at 2 h [7]: 52.8
tissue to tissue ratio at 4 h [7]: 38.9
tissue to tissue ratio at 24 h [7]: 26.1
tissue to tissue ratio at 0.5 h [8]: 18.4
tissue to tissue ratio at 2 h [8]: 34.5
tissue to tissue ratio at 4 h [8]: 803
tissue to tissue ratio at 24 h [8]: 913
tissue uptake dose at 2 h: 2.09 ± 0.96 %ID
tissue to tissue ratio at 2 h (Uptake ratio Tumor/kidney): 0.34
tissue to tissue ratio at 2 h (Uptake ratio Tumor/liver): 0.98
tissue to tissue ratio at 2 h (Uptake ratio Tumor/lung): 2.44
tissue to tissue ratio at 2 h (Uptake ratio Tumor/muscle): 166
SMILES: CCCC[C@H](NC(=O)COCCOCCNC(=O)CN1CCN(CC(=O)O)CCN(CC(=O)O)CC1)C(=O)N[C@H]1CC(=O)NCCCC[C@@H](C(N)=O)NC(=O)[C@H](Cc2c[nH]c3ccccc23)NC(=O)[C@H](CCCNC(=N)N)NC(=O)[C@@H](Cc2ccccc2)NC(=O)[C@H](Cc2c[nH]cn2)NC1=O [^67Cu-NOTA-PEG2Nle-CycMSHhex, ^67Cu-1,4,7-triazacyclononane-1,4,7-triyl-triacetic acid-polyethylene glycol-Nle-c[Asp-His-DPhe-Arg-Trp-Lys]-CONH2, metal not drawn]

tissue uptake dose at 0.5 h (0.037 MBq): 1.46 ± 0.49 %ID
tissue uptake dose at 2 h (0.037 MBq): 1.3 ± 0.27 %ID
tissue uptake dose at 4 h (0.037 MBq): 2.7 ± 0.26 %ID
tissue uptake dose at 24 h (0.037 MBq): 0.94 ± 0.32 %ID
tissue uptake at 0.5 h (0.037 MBq, Blood uptake): 1.22 ± 0.08 %ID/g
tissue uptake at 4 h (0.037 MBq, Blood uptake): 0.06 ± 0.07 %ID/g
tissue uptake at 0.5 h (0.037 MBq, Bone uptake): 0.68 ± 0.1 %ID/g
tissue uptake at 4 h (0.037 MBq, Bone uptake): 0.06 ± 0.06 %ID/g
tissue uptake at 4 h (0.037 MBq, Brain uptake): 0.02 ± 0.03 %ID/g
tissue uptake at 24 h (0.037 MBq, Brain uptake): 0.02 ± 0.02 %ID/g
tissue uptake at 0.5 h [1]: 7.18 ± 2.63 %ID/g
tissue uptake at 2 h [1]: 5.08 ± 1.52 %ID/g
tissue uptake at 4 h [1]: 4.21 ± 0.92 %ID/g
tissue uptake at 24 h [1]: 1.19 ± 0.28 %ID/g
tissue uptake at 0.5 h (0.037 MBq, Liver uptake): 1.15 ± 0.07 %ID/g
tissue uptake at 2 h (0.037 MBq, Liver uptake): 1.49 ± 0.56 %ID/g
tissue uptake at 24 h (0.037 MBq, Liver uptake): 0.82 ± 0.12 %ID/g
tissue uptake at 2 h [2]: < 2 %ID/g
tissue uptake at 2 h (0.037 MBq, Pancreas uptake): 0.12 ± 0.08 %ID/g
tissue uptake at 24 h (0.037 MBq, Pancreas uptake): 0.02 ± 0.01 %ID/g
tissue uptake at 24 h (0.037 MBq, Skin uptake): 0.02 ± 0.01 %ID/g
tissue uptake at 0.5 h (0.037 MBq, Spleen uptake): 0.52 ± 0.32 %ID/g
tissue uptake at 4 h (0.037 MBq, Spleen uptake): 0.12 ± 0.08 %ID/g
tissue uptake at 0.5 h (0.037 MBq, Stomach uptake): 1.53 ± 0.53 %ID/g
tissue uptake at 2 h (0.037 MBq, Stomach uptake): 0.81 ± 0.14 %ID/g
tissue uptake at 0.5 h (0.037 MBq, Tumor uptake): 16.6 ± 1.4 %ID/g
tissue uptake at 4 h (0.037 MBq, Tumor uptake): 8.79 ± 1.31 %ID/g
tissue to tissue ratio at 0.5 h [4]: 13.6
tissue to tissue ratio at 2 h [4]: 389
tissue to tissue ratio at 4 h [4]: 146
tissue to tissue ratio at 24 h [4]: 492
tissue to tissue ratio at 0.5 h [5]: 2.31
tissue to tissue ratio at 2 h [5]: 2.29
tissue to tissue ratio at 4 h [5]: 2.09
tissue to tissue ratio at 24 h [5]: 4.13
tissue to tissue ratio at 0.5 h [6]: 14.4
tissue to tissue ratio at 2 h [6]: 7.83
tissue to tissue ratio at 4 h [6]: 8.62
tissue to tissue ratio at 24 h [6]: 6
tissue to tissue ratio at 0.5 h [7]: 30.7
tissue to tissue ratio at 2 h [7]: 28.4
tissue to tissue ratio at 4 h [7]: 23.8
tissue to tissue ratio at 24 h [7]: 18.2
tissue to tissue ratio at 0.5 h [8]: 32.5
tissue to tissue ratio at 2 h [8]: 292
tissue to tissue ratio at 4 h [8]: 879
tissue to tissue ratio at 24 h [8]: 492
tissue uptake dose at 2 h: 1.48 ± 0.17 %ID
tissue to tissue ratio at 2 h (Uptake ratio Tumor/kidney): 0.19
tissue to tissue ratio at 2 h (Uptake ratio Tumor/liver): 0.92
tissue to tissue ratio at 2 h (Uptake ratio Tumor/lung): 2.44
SMILES: CCCC[C@H](NC(=O)CNC(=O)CNC(=O)CN1CCN(CC(=O)O)CCN(CC(=O)O)CC1)C(=O)N[C@H]1CC(=O)NCCCC[C@@H](C(N)=O)NC(=O)[C@H](Cc2c[nH]c3ccccc23)NC(=O)[C@H](CCCNC(=N)N)NC(=O)[C@@H](Cc2ccccc2)NC(=O)[C@H](Cc2c[nH]cn2)NC1=O [^67Cu-NOTA-GGNle-CycMSHhex, ^67Cu-NOTA-GlyGlyNle-CycMSHhex, metal not drawn] ({NOTA}-GG[Nle]DH[dF]RWK-NH2; lactam 4-9)
